Reference: patent US20220213119A1, “THIENOHETEROCYCLIC DERIVATIVE, PREPARATION METHOD THEREFOR AND MEDICAL USE THEREOF” (Jiangsu Hengrui Medicine Ca, Lid., priority 2019, published 2022)

How the values were obtained:
Colo205 cells = experiment: In vitro proliferation inhibition test on Colo205 tumor cells (CellTiter-Glo); type: cell-based; conditions: Homo sapiens, COLO 205, 72 h; Colo205 cell proliferation, 3 days of culture, CTG
Experimental: The purpose of this experiment is to test the inhibitory activity of the compounds on the proliferation of Colo205 cells (CCL-222, ATCC) in vitro. The cells were treated with different concentrations of compounds in vitro. After 3 days of culture, the cell proliferation was detected using CTG (CellTiter-Glo® Luminescent Cell Viability Assay, Promega, catalog number: G7573) reagent. The in vitro activity of the compounds was evaluated according to the IC50 value.
In the following, taking the in vitro proliferation inhibition test method of Colo205 cells as an example, the method in the present disclosure for testing the in vitro proliferation inhibitory activity of the compounds of the present disclosure is described. This method is also applicable to, but not limited to, the in vitro proliferation inhibitory activity test on other tumor cells.
Colo205 cells were digested, centrifuged and then resuspended. The single cell suspension was mixed well, and the density of viable cells was adjusted to 5.0×10^4 cells/ml with cell culture medium (RPMI1640+2% FBS), and 95 μl/well was added to a 96-well cell culture plate. Only 100 μl medium was added to the peripheral wells of the 96-well plate. The culture plate was incubated in an incubator for 24 hours (37° C., 5% CO2).
The compound was dissolved in DMSO (dimethyl sulfoxide, Shanghai Titan Scientific Co., Ltd.) and prepared into a stock solution with an initial concentration of 20 mM. The initial concentration of the small molecule compound is 2 mM, and then 4-fold diluted into to 9 points, and the tenth point is DMSO. Another 96-well plate was taken, 90 μl of cell culture medium (RPMI1640+2% FBS) was added to each well, then 10 μl of different concentrations of the test sample was added to each well, the mixture was mixed well, and then 5 μl of different concentrations of the test sample was added to the cell culture plate, and each sample has two duplicate holes. The culture plate was incubated in the incubator for 3 days (37° C., 5% CO2). The 96-well cell culture plate was taken out, 50 μl CTG solution was added to each well, and the plate was incubated for 10 minutes at room temperature. In a microplate reader (BMG labtech, PHERAstar FS), chemiluminescence was measured with the microplate reader.
(§1) The data were processed and analyzed with Microsoft Excel, Graphpad Prism 5.

ERK2 = target: T1, ERK2 (Homo sapiens, UniProt P28482); experiment: ERK2 enzyme activity test (ADP-Glo Kinase Assay); type: biochemical; conditions: chemiluminescence
T1 construct: purchased R&D 1230-KS-010
T1 sequence (P28482 whole entry): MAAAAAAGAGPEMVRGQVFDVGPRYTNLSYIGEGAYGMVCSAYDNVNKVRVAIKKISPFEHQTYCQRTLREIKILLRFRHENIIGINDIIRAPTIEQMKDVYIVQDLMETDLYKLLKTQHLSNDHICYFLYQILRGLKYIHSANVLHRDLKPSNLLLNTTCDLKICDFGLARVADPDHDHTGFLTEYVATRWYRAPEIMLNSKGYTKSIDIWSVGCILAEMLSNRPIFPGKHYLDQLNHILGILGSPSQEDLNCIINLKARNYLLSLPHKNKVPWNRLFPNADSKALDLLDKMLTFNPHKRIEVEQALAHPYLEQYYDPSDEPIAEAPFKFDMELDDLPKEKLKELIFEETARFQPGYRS
Experimental: The purpose of this experiment is to detect the inhibitory ability of the compounds on the ERK2 enzyme activity and evaluate the activity of the compounds in vitro according to IC50. The ADP-Glo™ Kinase Assay Kit was used in this experiment. Under the action of enzyme, the substrate was phosphorylated and ADP was produced at the same time. The ADP-Glo Reagent was added to remove unreacted ATP in the reaction system. The kinase detection reagent was used to detect the ADP produced by the reaction. In the presence of the compound, the inhibition rate of the compound was calculated by measuring the signal value.
Enzyme and substrate preparation: ERK2 (1230-KS-010, R&D) and substrate (Custom peptides, Gill Biochemical) were prepared to be 0.75 ng/μl and 1500 μM in the buffer (40 mM Tris, 20 mM MgCl2, 0.1 mg/mL BSA, 50 μM DTT). The enzyme solution and substrate solution were then prepared into a mixed solution at a volume ratio of 2:1 for later use. ATP was diluted to 500 μM with the buffer. The compounds were dissolved in DMSO (dimethyl sulfoxide, Shanghai Titan Scientific Co., Ltd.) to prepare a stock solution with an initial concentration of 20 mM, and then Bravo was used to prepare solutions of the compounds. Finally, a 3 μL of a mixed solution of enzyme and substrate, and 1 μL of different concentrations of the compound (the initial concentration is 50 μM, 4-fold dilution) were added to each well of the 384-well plate, and the plate was incubated at 30° C. for 10 minutes, and finally 1 μL of 500 μM ATP solution was added to each well, and the plate was incubated at 30° C. for 2 hours. Then 5 μL of ADP-Glo was added, and the plate was incubated at 30° C. for 40 minutes. Then 10 μL of Kinase detection buffer was added, and the plate was incubated at 30° C. for 40 minutes. The 384-well plate was taken out and placed in a microplate reader (BMG labtech, PHERAstar FS), and the chemiluminescence was measured by the microplate reader.
as §1

[1] = Pharmacokinetics assay in mice; type: in vivo; conditions: mouse, po, C57 mice (female), intragastric, 2 mg/kg, plasma; for Vd/F: read-out: Apparent distribution volume Vz/F; for AUC: read-out: Area under curve AUC; for CL/F: read-out: Clearance CLz/F; for half-life: read-out: Half Life T1/2 (converted); for Cmax: read-out: Plasma Concentration Cmax; for MRT: read-out: Residence Time MRT
Experimental: Mice were used as the test animal. The drug concentration in plasma at different time points was determined by LC/MS/MS method after administration of compound 3-P2, compound 4-P2, compound 9-P2, compound 10-P2, compound 12 and compound 15. The pharmacokinetic behavior of the compounds of the present disclosure in mice was studied, and the pharmacokinetic characteristics were evaluated.
54 of C57 mice (female) were equally divided into 6 groups, which were purchased from Shanghai Jiesijie Laboratory Animal Co., Ltd., with the animal production license number: SOCK (Shanghai) 2013-0006.
A certain amount of compound was weighted, followed by the addition of 5% volume of DMSO and 5% Tween 80 to dissolve it, then followed by the addition of 90% normal saline to prepare a colorless and clear solution of 0.1 mg/mL.
After an overnight fast, C57 mice were intragastrically administered the test compound at an administration dose of 2 mg/kg and an administration volume of 0.2 ml/10 g.
The mice were intragastrically administered the test compounds. 0.1mL of blood was taken before the administration and at 0.25, 0.5, 1.0, 2.0, 4.0, 6.0, 8.0, 11.0, 24.0 hours after the administration. The blood was placed in a heparinized test tube, and centrifuged at 3500 rpm for 10 minutes. The plasma was separated and stored at −20° C.
The content of the test compound in the plasma of mice after […] administration of the test compound at different concentrations was determined: 25 μl of mouse plasma at each time point after the administration was taken, followed by the addition of 50 μl of the internal standard camptothecin solution (100 ng/mL) and 200 μl of acetonitrile. The resulting solution was vortex-mixed for 5 minutes, and centrifuged for 10 minutes (4000 rpm). 4μl of the supernatant was taken from the plasma samples for LC/MS/MS analysis.

| IC50 (Colo205 cells) [nM] | IC50 (ERK2) [nM] | Structure (SMILES) | further results |
| --- | --- | --- | --- |
| 8 | 1 | O=C(CN1CCc2sc(-c3nc(NC4CCOCC4)ncc3Cl)cc2C1=O)N[C@H](CO)c1cccc(Cl)c1 [Example 1, (S)-2-(2-(5-Chloro-2-((tetrahydro-2H-pyran-4-yl)amino)pyrimidin-4-yl)-4-oxo-6,7-dihydrothieno[3,2-c]pyridin-5(4H)-yl)-N-(1-(3-chlorophenyl)-2-hydroxyethyl)acetamide] |  |
|  | 3 | CC1(C)c2sc(-c3nc(NC4CCOCC4)ncc3Cl)cc2C(=O)N1CC(=O)N[C@H](CO)c1cccc(Cl)c1 [Example 2, (S)-2-(2-(5-Chloro-2-((tetrahydro-2H-pyran-4-yl)amino)pyrimidin-4-yl)-6,6-dimethyl-4-oxo-4,6-dihydro-5H-thieno[2,3-c]pyrrol-5-yl)-N-(1-(3-chlorophenyl)-2-hydroxyethyl)acetamide] |  |
|  | 203 | Cc1cccc([C@@H](CO)NC(=O)[C@H](C)N2CCc3sc(-c4nc(NC5CCOCC5)ncc4Cl)cc3C2=O)c1 [Example 3-P1, (S)-2-(2-(5-Chloro-2-((tetrahydro-2H-pyran-4-yl)amino)pyrimidin-4-yl)-4-oxo-6,7-dihydrothieno[3,2-c]pyridin-5(4H)-yl)-N-((S)-2-hydroxy-1-(m-methylphenyl)ethyl)propionamide] |  |
| 26 | 4 | Cc1cccc([C@@H](CO)NC(=O)[C@@H](C)N2CCc3sc(-c4nc(NC5CCOCC5)ncc4Cl)cc3C2=O)c1 [Example 3-P2, (R)-2-(2-(5-Chloro-2-((tetrahydro-2H-pyran-4-yl)amino)pyrimidin-4-yl)-4-oxo-6,7-dihydrothieno[3,2-c]pyridin-5(4H)-yl)-N-((S)-2-hydroxy-1-(m-methylphenyl)ethyl)propionamide] | Vd/F [1]: 2.98 L/kg; AUC [1]: 914 ng·h/mL; CL/F [1]: 36.5 mL/min/kg; half-life [1]: 0.945 h; Cmax [1]: 708 ng/mL; MRT [1]: 1.16 h |
|  | 434 | C[C@@H](C(=O)N[C@H](CO)c1cccc(Cl)c1)N1CCc2sc(-c3nc(NC4CCOCC4)ncc3Cl)cc2C1=O [Example 4-P1, (S)-2-(2-(5-Chloro-2-((tetrahydro-2H-pyran-4-yl)amino)pyrimidin-4-yl)-4-oxo-6,7-di hydrothieno[3,2-c]pyridin-5(4H)-yl)-N-((S)-1-(3-chlorophenyl)-2-hydroxyethyl)propionamide] |  |
| 29 | 6 | C[C@H](C(=O)N[C@H](CO)c1cccc(Cl)c1)N1CCc2sc(-c3nc(NC4CCOCC4)ncc3Cl)cc2C1=O [Example 4-P2] | Vd/F [1]: 8.09 L/kg; AUC [1]: 364 ng·h/mL; CL/F [1]: 91.5 mL/min/kg; half-life [1]: 1.02 h; Cmax [1]: 376 ng/mL; MRT [1]: 1.14 h |
|  | 22 | CC(C(=O)N[C@H](CO)c1cccc(Cl)c1)N1C(=O)c2cc(-c3nc(NC4CCOCC4)ncc3Cl)sc2C1(C)C (stereo partly drawn) [Example 5, 2-(2-(5-Chloro-2-((tetrahydro-2H-pyran-4-yl)amino)pyrimidin-4-yl)-6,6-dimethyl-4-oxo-4,6-dihydro-5H-thieno[2,3-c]pyrrol-5-yl)-N-((S)-1-(3-chlorophenyl)-2-hydroxyethyl)propionamide] |  |
|  | 29 | O=C(CN1CCc2sc(-c3ccnc(NC4CCOCC4)n3)cc2C1=O)N[C@H](CO)c1cccc(Cl)c1 [Example 6, (S)-N-(1-(3-Chlorophenyl)-2-hydroxyethyl)-2-(4-oxo-2-(2-((tetrahydro-2H-pyran-4-yl)amino)pyrimidin-4-yl)-6,7-dihydrothieno[3,2-c]pyridin-5(4H)-yl)acetamide] |  |
| 38 | 3 | Cc1cccc([C@@H](CO)NC(=O)CN2CCc3sc(-c4nc(Nc5ccnn5C)ncc4C)cc3C2=O)c1 [Example 7, (S)-N-(2-Hydroxy-1-(m-methylphenyl)ethyl)-2-(2-(5-methyl-2-((1-methyl-1H-pyrazol-5-yl)amino)pyrimidin-4-yl)-4-oxo-6,7-dihydrothieno[3,2-c]pyridin-5(4H)-yl)acetamide] |  |
|  | 410 | COc1cc(F)cc([C@@H](CO)NC(=O)[C@H](C)N2CCc3sc(-c4nc(NC5CCOCC5)ncc4Cl)cc3C2=O)c1 [Example 9-P1, (S)-2-(2-(5-Chloro-2-((tetrahydro-2H-pyran-4-yl)amino)pyrimidin-4-yl)-4-oxo-6,7-dihydrothieno[3,2-c]pyridin-5(4H)-yl)-N-((S)-1-(3-fluoro-5-methoxyphenyl)-2-hydroxyethyl)prop ionamide] |  |
| 26 | 9 | Cc1cccc([C@@H](CO)NC(=O)[C@@H](C)N2CCc3sc(-c4nc(N[C@@H](C)CO)ncc4Cl)cc3C2=O)c1 [Example 13, (R)-2-(2-(5-Chloro-2-(((S)-1-hydroxypropan-2-yl)amino)pyrimidin-4-yl)-4-oxo-6,7-dihydrothieno[3,2-c]pyridin-5(4H)-yl)-N-((S)-2-hydroxy-1-(m-methylphenyl)ethyl)propionamide] |  |
